Measurements: ChEMBL document CHEMBL3243996, “[1-Deaminopenicillamine,4-threonine]oxytocin, a potent inhibitor of oxytocin” (J Med Chem, 1978)
The source made the active and inactive calls. The rule behind the calls is not given here. Starred links: 1 amine or outer side, 2 acyl side, 3 side chain; linkers in the order of their positions; H or OH if unused. Positions of bridges follow the written chain, without caps; N, C: chain ends. Residues, ends and D or L forms follow the SMILES beside them. X2 = O=C(CC1(S[*:2])CCCCC1)[*:1]; X1 = CC(C)(CC(=O)[*:1])S[*:2]

Assays:
Oxytocin receptor [1] = molecular target: T1, Oxytocin receptor (Rattus norvegicus, UniProt P70536); assay: (§1) Antagonist activity at oxytocin receptor in rat uterus by average effective molar concentration based analysis; type: tissue-based; conditions: read-out: pA2 (converted)
T1 sequence (P70536 whole entry): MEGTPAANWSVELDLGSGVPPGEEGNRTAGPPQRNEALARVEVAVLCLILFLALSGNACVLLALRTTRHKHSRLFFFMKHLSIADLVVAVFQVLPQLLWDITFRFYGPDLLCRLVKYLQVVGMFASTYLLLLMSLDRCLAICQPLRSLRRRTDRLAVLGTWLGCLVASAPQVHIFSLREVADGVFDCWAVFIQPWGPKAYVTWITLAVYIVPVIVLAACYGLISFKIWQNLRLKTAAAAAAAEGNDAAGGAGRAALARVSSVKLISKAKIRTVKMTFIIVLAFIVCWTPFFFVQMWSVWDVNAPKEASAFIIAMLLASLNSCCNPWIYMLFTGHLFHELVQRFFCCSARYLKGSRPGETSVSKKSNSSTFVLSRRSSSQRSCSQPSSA

[2] = (§2) Antagonist activity at rat vasopressin receptor
[3] = molecular target: T2, Oxytocin receptor (Rattus norvegicus) (UniProt P70536); assay: (§3) Antagonist activity at oxytocin receptor in rat uterus by Schild's method in absence of Mg2+; type: tissue-based
T2 sequence (whole entry): T1 sequence (P70536 whole entry)

Oxytocin receptor [4] = molecular target: T1, Oxytocin receptor; assay: as §3; type: tissue-based; conditions: read-out: pA2 (converted)
[5] = molecular target: T2, Oxytocin receptor (Rattus norvegicus); assay: as §1; type: tissue-based
Rattus norvegicus [6] = species on record: Rattus norvegicus; assay: as §2
Rattus norvegicus [7] = species on record: Rattus norvegicus; assay: Agonist activity at rat vasopressin receptor
[8] = molecular target: T2, Oxytocin receptor (Rattus norvegicus); assay: Agonist activity at oxytocin receptor in rat uterus; type: tissue-based

Kb (Oxytocin receptor [1]) [µM] | A2 [3] [×10⁻⁸ M] | Kb (Oxytocin receptor [4]) [µM] | SMILES | further results
0.138 | – | – | CC[C@H](C)[C@@H]1NC(=O)[C@H](Cc2ccc(O)cc2)NC(=O)[C@@H](N)C(C)(C)SSC[C@@H](C(=O)N2CCC[C@H]2C(=O)N[C@@H](CC(C)C)C(=O)NCC(N)=O)NC(=O)[C@H](CC(N)=O)NC(=O)[C@H](CCC(N)=O)NC1=O | –
0.115 | 9.1 | 0.0724 | CC[C@H](C)[C@@H]1NC(=O)[C@H](Cc2ccc(O)cc2)NC(=O)CC(C)(C)SSC[C@@H](C(=O)N2CCC[C@H]2C(=O)N[C@@H](CC(C)C)C(=O)NCC(N)=O)NC(=O)[C@H](CC(N)=O)NC(=O)[C@H](CCC(N)=O)NC1=O (YIQNCPLG-NH2; linker N-5 via X1) | pA2 [2]: 6.27; A2 [5]: 11.6 ×10⁻⁸ M
– | – | 0.0347 | CC[C@H](C)[C@@H]1NC(=O)[C@H](Cc2ccc(O)cc2)NC(=O)CC(C)(C)SSC[C@@H](C(=O)N2CCC[C@H]2C(=O)N[C@@H](CC(C)C)C(=O)NCC(N)=O)NC(=O)[C@H](CC(N)=O)NC(=O)[C@H]([C@@H](C)O)NC1=O (stereo in doubt; 1a) [listing 1 of 2 here] | pA2 [2]: 6.67
– | 4 | – | CC[C@H](C)[C@@H]1NC(=O)[C@H](Cc2ccc(O)cc2)NC(=O)CC(C)(C)SSC[C@@H](C(=O)N2CCC[C@H]2C(=O)N[C@@H](CC(C)C)C(=O)NCC(N)=O)NC(=O)[C@H](CC(N)=O)NC(=O)[C@H]([C@@H](C)O)NC1=O (stereo in doubt; 1a) [listing 2 of 2 here] | Activity (Rattus norvegicus [7]): inactive; Activity [8]: inactive
– | – | 0.0257 | CC[C@H](C)[C@@H]1NC(=O)[C@H](Cc2ccc(O)cc2)NC(=O)CC(C)(C)SSC[C@@H](C(=O)N2CCC[C@H]2C(=O)N[C@@H](CC(C)C)C(=O)NCC(N)=O)NC(=O)[C@H](CC(N)=O)NC(=O)[C@H]([C@@H](C)O)NC1=O (stereo in doubt; 1b) [listing 1 of 2 here] | –
– | 4.3 | – | CC[C@H](C)[C@@H]1NC(=O)[C@H](Cc2ccc(O)cc2)NC(=O)CC(C)(C)SSC[C@@H](C(=O)N2CCC[C@H]2C(=O)N[C@@H](CC(C)C)C(=O)NCC(N)=O)NC(=O)[C@H](CC(N)=O)NC(=O)[C@H]([C@@H](C)O)NC1=O (stereo in doubt; 1b) [listing 2 of 2 here] | –

SMILES | Kb (Oxytocin receptor [1]) [µM] | A2 [3] [×10⁻⁸ M] | Kb (Oxytocin receptor [4]) [µM] | further results
CC[C@H](C)[C@@H]1NC(=O)[C@H](Cc2ccc(O)cc2)NC(=O)CC2(CCCCC2)SSC[C@@H](C(=O)N2CCC[C@H]2C(=O)N[C@@H](CC(C)C)C(=O)NCC(N)=O)NC(=O)[C@H](CC(N)=O)NC(=O)[C@H](CCC(N)=O)NC1=O (YIQNCPLG-NH2; linker N-5 via X2) | 0.0372 | – | 0.0372 | Activity (Rattus norvegicus [6]): Active; A2 [5]: 3.7 ×10⁻⁸ M
